Assay results from the METLIN SMRT retention time set (Domingo-Almenara et al. 2019).

Test: gradient 5% acetonitrile 3 min, to 50% in 2 min, to 85% in 15 min, held 3 min, 100 µL/min
Conditions: column: Zorbax Extend-C18 2.1 x 50 mm; eluents: water / acetonitrile, 0.1% formic acid
How it was run: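 In both positive and negative ionization mode, a quadrupole time-of-flight mass spectrometer coupled to HPLC analyzed pure standards run in mixtures of ~100 molecules. The Zorbax Extend-C18 column (2.1 × 50 mm, 1.8 μm) was operated at 100 μL/min with water and acetonitrile, each containing 0.1% formic acid. The dead volume was 40 μL and the dwell volume 900 μL. Retention time came from adduct peaks that were computationally picked and individually inspected by hand.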

| Structure (SMILES) | RP-LC retention time |
| --- | --- |
| Cc1cc(=O)c2c(=O)[nH][nH]c2[nH]1 | 567 s |
| CC(C)NC(=O)c1ccc2c(c1)CCN2C(=O)C1CCC1 | 764 s |
| Cc1ncc2c(n1)C[C@@H]1CC[C@H]2N1C(=O)COc1ccc(F)cc1 | 675 s |
| COc1cc(OC)c(NC(=O)C2CCCN(c3ncnc4c3nc3n4CCCCC3)C2)cc1Cl (stereo not given) | 862 s |
| O=C(c1ccc(F)cc1F)N1CCc2nc(-c3ccc(Cl)cc3)ncc2C1 | 1060 s |
| O=C(Nc1ccc(Br)cc1)Nc1c(-c2ccncc2)nc2ccccn12 | 641 s |
| COCCNC(=O)N1CCCn2nc(-c3ccc(C(F)(F)F)cc3)cc2C1 | 839 s |
| O=S(=O)(c1ccccc1)N1CCC(CCOc2ccccc2)C1 (stereo not given) | 754 s |
| CC1CCN(C(=O)c2ccc(OCC3CCCN(C(=O)c4ccc(C#N)cc4)C3)cc2)CC1 (stereo not given) | 956 s |
| COC(=O)c1ccc(C(=O)Nc2nnc(Cc3ccc(C)cc3)o2)cc1 | 768 s |
| Cc1ccc(-n2c(=O)c3c(cc(C)n3C)n(CC(=O)Nc3cccc(Br)c3)c2=O)cc1 | 883 s |
| CCN1C(=O)C2(CCN(S(=O)(=O)c3c(C)nn(C)c3C)CC2)c2ccccc21 | 841 s |
| CC(=O)N1CCc2sc(C(=O)NCc3ccc4c(c3)OCO4)cc2C1 | 682 s |
| Cc1cc(OCC(=O)N[C@@H](CC(C)C)C(=O)O)c2c3c(c(=O)oc2c1)CCC3 | 822 s |
| CCOC(=O)c1ccc2nc(C(F)(F)F)nc(NCCCN3CCOCC3)c2c1 | 658 s |
| COc1ccc2c(c1)C1(CCN(C(=O)COc3cccc(C)c3)C1)C(=O)N2 (stereo not given) | 668 s |
| CC(C)Cc1csc(-c2csc(S(=O)(=O)NCc3ccc(F)cc3)c2)n1 | 1160 s |
| O=[N+]([O-])c1cccc(-c2ccc(SCc3ccccn3)nn2)c1 | 637 s |
| Cc1nc2c(n1C)CN(C(=O)Cc1c(F)cccc1Cl)CC2 | 594 s |

| Structure (SMILES) | RP-LC retention time |
| --- | --- |
| CCOc1ccc(Cc2nc(-c3cccc(-c4ccnn4C)c3)no2)cc1OCC | 1090 s |
| Cc1ccc(-c2coc(-c3ccc(NC(=O)c4ccc(Br)o4)cc3)n2)cc1 | 1230 s |
| Cc1cc(N2CCCCC2)nc(N2CCN(C(=O)c3ccc(C(C)(C)C)cc3)CC2)n1 | 855 s |
| COc1ccc(C)cc1S(=O)(=O)Nc1ccc(-c2cn3ccc(C)nc3n2)cc1 | 661 s |
| O=C1Cc2cc(NC(=O)Nc3ccc(Cl)c(Cl)c3)ccc2N1 | 742 s |
| CSc1cccc(NC(=O)C(=O)NCc2cccs2)c1 | 846 s |
| COc1ccc(C(C)NC(=O)Cc2c[nH]c3ncccc23)cc1OC (stereo not given) | 664 s |
| Cc1cc(-c2c(C)sc(C)c2S(=O)(=O)Nc2ccc(F)c(Cl)c2)n[nH]1 | 1120 s |
| Cc1noc(C)c1-c1ccc(S(=O)(=O)N2CCC3(CC2)OCCO3)cc1 | 853 s |
| Cc1cn(C)c(CC(=O)NCCN2CCOCC2)c1C(=O)O | 572 s |
| Cc1cc(N2CCN(C)CC2)nc2ccc(NC(=O)Nc3ccc(F)cc3F)cc12 | 594 s |
| O=C1CCN(S(=O)(=O)c2ccccc2)CCCN(S(=O)(=O)Cc2ccccc2)CCN1 | 779 s |
| CCOC(=O)c1c(NCc2ccc(C)cc2)c2ccc(Cl)cc2[nH]c1=O | 922 s |
| COc1ccc(CCc2nc3nccc(-c4ccc(OC)c(OC)c4)n3n2)cc1OC | 781 s |
| COc1ccc(C2CN(S(=O)(=O)c3ccc(C#N)cc3)CCN2C)cc1 (stereo not given) | 564 s |
| O=C(NCCCn1c(-c2ccncc2)nc2cccnc21)NCc1ccc(F)cc1 | 627 s |
| O=C(CCc1cccc2[nH]ccc12)N1CCN(c2cccc(Cl)c2)CC1 | 980 s |
| Cc1ccc(-c2cn3c(CC(=O)N4CCN(c5ccc(Cl)cc5)CC4)csc3n2)cc1C | 997 s |

Next, values leading:

| RP-LC retention time | Structure (SMILES) |
| --- | --- |
| 707 s | Cc1ccc(Nc2ncccc2C(=O)O)cc1C |
| 757 s | Cc1nc(N2CCN(c3ccccn3)CC2)nc2c1C(=O)CC(c1ccccc1)C2 (stereo not given) |
| 1290 s | Clc1ccc(-c2noc(Cc3nc(-c4ccccc4)cs3)n2)cc1 |
| 961 s | CN(C)c1ccc(C(=O)Nc2cc(-c3ccsc3)no2)cc1 |
| 981 s | Fc1ccccc1-c1nn2c(CSc3ccccc3)nnc2s1 |
| 805 s | O=C(NCCc1c[nH]c2ccc(Cl)cc12)c1cc(-c2cccnc2)nc2ccccc12 |
| 748 s | CCOc1ccc(CCNC(=O)c2ccc(-n3cnc(NC(=O)C4CC4)c3)cc2)cc1OCC |
| 987 s | Cc1ccc(CNC(=O)c2c(-c3cccc(Br)c3)noc2C)o1 |
| 963 s | Cc1ccc(C)c(NC(=O)N2CCCC(C)(C(=O)NCc3ccc(F)cc3)C2)c1 (stereo not given) |
| 610 s | O=C(Nc1ccc(N2CCOCC2)cc1)C1CCN(c2cnc3nccnc3c2)CC1 |
| 882 s | CC1Sc2ccc(S(=O)(=O)N3CCC(C(=O)N4CCc5ccccc5C4)CC3)cc2NC1=O (stereo not given) |
| 832 s | Cc1ccccc1-c1noc(-c2cccn(CC(=O)NC3CCCC3)c2=O)n1 |
| 998 s | CCCn1ccc2sc(C)c(C(=O)NCc3cccc(Br)c3)c2c1=O |
| 824 s | Cc1cccc(CNC(=O)c2csc(C(=O)NC3CC3)n2)c1 |
| 599 s | Cc1cccc(OCCn2c(CCO)nc3ccccc32)c1C |
| 659 s | CC1CC(C)CN(CCCNC(=O)Cn2ncc3c4ccccc4n(C)c3c2=O)C1 (stereo not given) |
| 684 s | CCn1ccc2sc(C)c(C(=O)N3CCCCC3)c2c1=O |
| 854 s | CCCN1C(=O)Cc2ccccc2C1C(=O)NCc1cccc(Br)c1 (stereo not given) |
| 875 s | CCc1ccc(C2=C(C)C(N3CCCN(C(=O)C4CCC4)CC3)=NS2(=O)=O)cc1 |
| 579 s | O=C(Cn1c(CN2CCOCC2)nc2ccccc21)N1CCCC1 |
| 720 s | O=C(Nc1ccc2c(c1)OCCO2)NC1CCN(c2ccccc2)C1=O (stereo not given) |
| 1070 s | Cc1ccccc1NC(=O)N1CCC2(CC1)NC(=O)c1cc(F)ccc1N2C |
| 940 s | Cn1c(=O)c2c3c(cnc2n(C)c1=O)C(=O)CC(c1ccc(F)cc1)C3 (stereo not given) |
| 679 s | CN(C(=O)Cn1nc(Cc2cccnc2)c2ccccc2c1=O)c1ccc(Br)cc1 |
| 885 s | Cc1ccn(-c2ccc(C(=O)NC3CCCCC3)cn2)n1 |
| 567 s | O=C(Nc1cccnc1)C1CCCN(c2nnc3ccc(Cl)cn23)C1 (stereo not given) |
| 578 s | COc1ccc(NC(=O)Cn2ccnc2-c2ccnc(N3CCOCC3)c2)cc1OC |

| RP-LC retention time | Structure (SMILES) |
| --- | --- |
| 647 s | CCOC(=O)C(=O)NCC1CN(c2ccccc2)C(=O)O1 (stereo not given) |
| 548 s | O=C(CCC1CCN(c2cc(NC3CC3)ncn2)CC1)NCc1cccnc1 |
| 616 s | Cc1cc(N2CCN(C(=O)CCc3ccccc3)CC2)nc2nncn12 |
| 683 s | CC(C)c1nc2c(c(=O)n1CC(=O)NCc1ccc(F)cc1)CCN(Cc1ccccc1)C2 |
| 654 s | O=C(CSc1nnc(-c2cccnc2)o1)Nc1c(Cl)cccc1Cl |
| 1090 s | CC(C)Cn1c(=O)c2cc(C(=O)NC(C)c3ccccc3)nn2c2ccccc21 (stereo not given) |
| 1100 s | O=C(c1c(F)cccc1F)N1CCc2nc(-c3ccc(Cl)cc3)ncc2C1 |
| 610 s | CCCNC(=O)N1CCCCC1c1nc(C2CC2)n[nH]1 (stereo not given) |
| 1040 s | Cc1ccc(C(=O)Nc2nccnc2C(=O)NC2CCCC2)cc1 |
| 1120 s | COc1ccc(-c2csc(NC(=O)CSc3nc4c(cc3C#N)CCC4)n2)cc1 |
| 925 s | COc1ccc(CNC(=O)Nc2nnc(-c3ccc4c(c3)CCCC4)o2)cc1 |
| 554 s | COc1cccc(C(O)CN2CCN(c3ccccn3)CC2)c1 (stereo not given) |
| 1160 s | Fc1ccc(Cc2noc(-c3nc(-c4ccccc4)no3)n2)cc1 |
| 1040 s | CSc1cccc(NC(=O)N2CCCC2c2nc(-c3ccc(F)cc3)no2)c1 (stereo not given) |
| 870 s | Cc1nnc2ccc(S(=O)(=O)N(Cc3ccccc3)c3ccc(F)cc3)cn12 |
| 977 s | Cc1ccc(C)c(NC(=O)Cn2cccc2-c2nnc(C3CCC3)o2)c1 |
| 676 s | CCOC(=O)C1CCC(CNC(=O)N2CCN(Cc3nc4ccccc4o3)CC2)CC1 (stereo not given) |
| 896 s | O=C(NCc1cccc(C(F)(F)F)c1)C1CCN(c2nnc(-c3ccccc3)o2)CC1 |
| 611 s | CCCNC(=O)C1CCN(c2ccc(SCC(=O)Nc3ccccc3OC)nn2)CC1 |
| 750 s | COc1ccc(-c2ncc3c(=O)n(CC(=O)Nc4ccc(OC)c(OC)c4)cnc3n2)cc1 |
| 1230 s | O=C(NCc1ccccc1Cl)c1c(O)c2cccnc2n(-c2cccc(F)c2)c1=O |
| 804 s | O=C(c1cccs1)N1CCc2ccc(NS(=O)(=O)c3ccccc3Cl)cc2C1 |
| 659 s | O=C(NCc1cscn1)C1CCN(S(=O)(=O)c2cccc3nsnc23)CC1 |
| 992 s | CSc1cccc(N2C(=O)C3N=NN(Cc4nc(-c5ccccc5)no4)C3C2=O)c1 (stereo not given) |
| 1070 s | CSc1cccc(NC(=O)Cn2cccc2-c2nc(-c3ccccc3)no2)c1 |
| 1010 s | Cc1ccc(-n2nc(N3CCCC(C(=O)NCCCc4ccccc4)C3)ccc2=O)cc1Cl (stereo not given) |
